Laboratory results as given in patent US20240400591A1 (Jacobio Pharmaceuticals Co., Ltd., priority 2021, published 2024).

Molecular target: T1, His-p53 Y220C (94-294) protein (Homo sapiens, UniProt P04637, Y220C)
T1 construct: His-p53 Y220C (94-294) protein
Assay: In vitro DNA binding assay (HTRF)
Format: biochemical
Details: % activation normalized to 2 μM Ref-1a high control

Row | Compound | EC50 [µM]
1 | CN1CC[C@H](Nc2cccc3c(CC(F)(F)F)c(C#CCNc4ccc(S(N)(=O)=O)cc4)sc23)[C@H](F)C1 (racemic) [Example 5, 4-((3-(7-(((3R,4S)-3-fluoro-1-methylpiperidin-4-yl)amino)-3-(2,2,2-trifluoroethyl)benzo[b]thiophen-2-yl)prop-2-yn-1-yl)amino)benzenesulfonamide] | 0.032
2 | COc1cc(C(=O)NC2CCN(C)CC2)ccc1NCC#Cc1sc2c(NC3CCN(C)CC3F)cccc2c1CC(F)(F)F (racemic) [Example 47, 4-((3-(7-((3-fluoro-1-methylpiperidin-4-yl)amino)-3-(2,2,2-trifluoroethyl)benzo[b]thiophen-2-yl)prop-2-yn-1-yl)amino)-3-methoxy-N-(1-methylpiperidin-4-yl)benzamide] | 0.02
3 | COc1cc(C(=O)N2CCS(=O)(=O)CC2)ccc1NCC#Cc1sc2c(N[C@H]3CCN(C)C[C@H]3F)cccc2c1CC(F)(F)F (racemic) [Example 48, (1,1-dioxidothiomorpholino)(4-((3-(7-(((3R,4S)-3-fluoro-1-methylpiperidin-4-yl)amino)-3-(2,2,2-trifluoroethyl)benzo[b]thiophen-2-yl)prop-2-yn-1-yl)amino)-3-methoxyphenyl)methanone] | 0.084
4 | COCCN1CC[C@@H](Nc2cccc3c(CC(F)(F)F)c(C#CCNc4ccc(P(C)(C)=O)cc4OC)sc23)[C@@H](F)C1 (racemic) [Example 88, (4-((3-(7-(((Z)-3-fluoro-1-(2-methoxyethyl)piperidin-4-yl)amino)-3-(2,2,2-trifluoroethyl)benzo[b]thiophen-2-yl)prop-2-yn-1-yl)amino)-3-methoxyphenyl)dimethylphosphine oxide] | 0.404
5 | CNC(=O)c1ccc(NCC#Cc2sc3c(N[C@@H]4CCN(C)C[C@@H]4F)cccc3c2CC(F)(F)F)c(C#N)c1 (racemic) [Example 95, 3-cyano-4-((3-(7-(((Z)-3-fluoro-1-methylpiperidin-4-yl)amino)-3-(2,2,2-trifluoroethyl)benzo[b]thiophen-2-yl)prop-2-yn-1-yl)amino)-N-methylbenzamide] | 0.133
6 | CCN1CC[C@@H](Nc2cccc3c(CC(F)(F)F)c(C#CCNc4ccc(P(C)(C)=O)cc4OC)sc23)[C@@H](F)C1 (racemic) [Example 100, (4-((3-(7-(((Z)-1-ethyl-3-fluoropiperidin-4-yl)amino)-3-(2,2,2-trifluoroethyl)benzo[b]thiophen-2-yl)prop-2-yn-1-yl)amino)-3-methoxyphenyl)dimethylphosphine oxide] | 0.04
7 | COc1cc(P(C)(C)=O)ccc1OCC#Cc1sc2c(N[C@@H]3CCN(C)C[C@@H]3F)cccc2c1CC(F)(F)F (racemic) [Example 123, (4-((3-(7-(((Z)-3-fluoro-1-methylpiperidin-4-yl)amino)-3-(2,2,2-trifluoroethyl)benzo[b]thiophen-2-yl)prop-2-yn-1-yl)oxy)-3-methoxyphenyl)dimethylphosphine oxide] | 0.147
8 | COc1cc(P(C)(C)=O)ccc1NCC#Cc1sc2c(N[C@H]3CCN(C)C[C@@H]3F)cccc2c1-c1ccc(F)cc1 (racemic) [Example 139, (4-((3-(7-(((E)-3-fluoro-1-methylpiperidin-4-yl)amino)-3-(4-fluorophenyl)benzo[b]thiophen-2-yl)prop-2-yn-1-yl)amino)-3-methoxyphenyl)dimethylphosphine oxide] | 1.22
9 | COc1cc(P(C)(C)=O)ccc1NCC#Cc1sc2c(N[C@@H]3CCN(C4CCS(=O)(=O)CC4)C[C@@H]3F)cccc2c1CC(F)(F)F (relative stereo) [Example 93, (Z)—N-[2-[3-(4-dimethylphosphoryl-2-methoxy-anilino)prop-1-ynyl]-3-(2,2,2-trifluoroethyl)benzothiophen-7-yl]-1-(1,1-dioxothian-4-yl)-3-fluoro-piperidin-4-amine] | 0.151
10 | CCc1c(C#CCNc2ccc(S(N)(=O)=O)cc2)sc2c(NC3CCN(C)CC3)cccc12 [Example 1, 4-((3-(3-ethyl-7-((1-methylpiperidin-4-yl)amino)benzo[b]thiophen-2-yl)prop-2-yn-1-yl)amino)benzenesulfonamide] | 0.345
11 | CN1CCC(Nc2cccc3c(CC(F)(F)F)c(C#CCNc4ccc(S(N)(=O)=O)cc4)sc23)CC1 [Example 4, 4-((3-(7-((1-methylpiperidin-4-yl)amino)-3-(2,2,2-trifluoroethyl)benzo[b]thiophen-2-yl)prop-2-yn-1-yl)amino) benzenesulfonamide] | 0.099

Results, then the compound that gave them:

Row | EC50 [µM] | Compound
12 | 0.904 | COc1cc2c(cc1NCC#Cc1sc3c(N[C@@H]4CCN(C)C[C@@H]4F)cccc3c1CC(F)(F)F)CNS2(=O)=O (racemic) [Example 77, 5-((3-(7-(((Z)-3-fluoro-1-methylpiperidin-4-yl)amino)-3-(2,2,2-trifluoroethyl)benzo[b]thiophen-2-yl)prop-2-yn-1-yl)amino)-6-methoxy-2,3-dihydrobenzo[d]isothiazole 1,1-dioxide]
13 | 0.044 | COc1cc(S(C)(=O)=O)ccc1NCC#Cc1sc2c(NC3CCN(C)CC3F)cccc2c1CC(F)(F)F (stereo not shown) [Example 2, (Z)-3-fluoro-N-(2-(3-((2-methoxy-4-(methylsulfonyl)phenyl)amino)prop-1-yn-1-yl)-3-(2,2,2-trifluoroethyl)benzo[b]thiophen-7-yl)-1-methylpiperidin-4-amine]
14 | 0.081 | COc1cc(S(C)(=O)=O)ccc1NCC#Cc1sc2c(NC3CCN(C)CC3)cccc2c1CC(F)(F)F [Example 3, N-(2-(3-((2-methoxy-4-(methylsulfonyl)phenyl)amino)prop-1-yn-1-yl)-3-(2,2,2-trifluoroethyl)benzo[b]thiophen-7-yl)-1-methylpiperidin-4-amine]
15 | 0.2 | COc1cc(S(C)(=O)=O)c(F)cc1NCC#Cc1sc2c(NC3CCN(C)CC3)cccc2c1CC(F)(F)F [Example 7, N-(2-(3-((5-fluoro-2-methoxy-4-(methylsulfonyl)phenyl)amino)prop-1-yn-1-yl)-3-(2,2,2-trifluoroethyl)benzo[b]thiophen-7-yl)-1-methylpiperidin-4-amine]
16 | 0.112 | CNC(=O)c1ccc(NCC#Cc2sc3c(NC4CCN(C)CC4)cccc3c2CC(F)(F)F)c(OC)c1 [Example 8, 3-methoxy-N-methyl-4-((3-(7-((1-methylpiperidin-4-yl)amino)-3-(2,2,2-trifluoroethyl)benzo[b]thiophen-2-yl)prop-2-yn-1-yl)amino)benzamide]
17 | 0.114 | CN1CCC(Nc2cccc3c(CC(F)(F)F)c(C#CCNc4ccc(P(C)(C)=O)cc4)sc23)CC1 [Example 9, dimethyl(4-((3-(7-((1-methylpiperidin-4-yl)amino)-3-(2,2,2-trifluoroethyl)benzo[b]thiophen-2-yl)prop-2-yn-1-yl)amino)phenyl)phosphine oxide]
18 | 0.114 | CN1CCC(Nc2cccc3c(CC(F)(F)F)c(C#CCNc4ccc(S(C)(=O)=O)cc4OCF)sc23)CC1 [Example 11, N-(2-(3-((2-(fluoromethoxy)-4-(methylsulfonyl)phenyl)amino)prop-1-yn-1-yl)-3-(2,2,2-trifluoroethyl)benzo[b]thiophen-7-yl)-1-methylpiperidin-4-amine]
19 | 0.141 | CN1CCC(Nc2cccc3c(CC(F)(F)F)c(C#CCNc4ccc(S(C)(=O)=O)cc4OCC(F)F)sc23)CC1 [Example 12, N-(2-(3-((2-(2,2-difluoroethoxy)-4-(methylsulfonyl)phenyl)amino)prop-1-yn-1-yl)-3-(2,2,2-trifluoroethyl)benzo[b]thiophen-7-yl)-1-methylpiperidin-4-amine]
